# Measured values from ChEMBL document CHEMBL4364294 (J Med Chem, 2019).
# Key:
# [1] = Aqueous solubility of the compound at pH 7.4; type: physicochemical
# [2] = Aqueous solubility of the compound at pH 6.5; type: physicochemical
# [3] = Aqueous solubility of the compound at pH 1; type: physicochemical
# [4] = Intrinsic clearance in human liver microsomes; type: ADME, Microsome; conditions: read-out: CLH
solubility [1] [µM],solubility [2] [µM],solubility [3] [µM],predicted hepatic clearance [4] [L/h/kg],Structure (SMILES)
25,22,363,,O=C(N[C@H]1CC[C@H](C(O)CC2c3ccccc3-c3cncn32)CC1)c1ccccc1 (stereo partly specified)
,,,1.22,O=C1CCC(C(O)CC2c3c(F)cccc3-c3cncn32)CC1 (stereo unspecified)
,,,1.08,OC(CC1c2ccccc2-c2cncn21)C1CCCCC1 (stereo unspecified)
,,,0.916,OC(CC1c2c(F)cccc2-c2cncn21)C1CCC(F)(F)CC1 (stereo unspecified)
56,65,400,0.494,O=C(N[C@H]1CC[C@@H](C(O)CC2c3ccccc3-c3cncn32)CC1)c1ccccc1 (stereo partly specified)
,,,1.13,OC(CC1c2c(F)cccc2-c2cncn21)C1CCCCC1 (stereo unspecified)
